What all share (format): functional
Experiment [1] deals with Rattus norvegicus. Kind of experiment: Antihypertensive activity determined as percent fall in blood pressure after 2 hr in spontaneously hypertensive rats administered with 10 mg/kg (po).
In experiment [2] the test system is Rattus norvegicus. Kind of experiment: Antihypertensive activity determined as percent fall in blood pressure after 4 hours in spontaneously hypertensive rats administered with 10 mg/kg, (po).
Experiment [3] concerns Rattus norvegicus. Kind of experiment: Antihypertensive activity determined as percent fall in blood pressure after 2 hr in spontaneously hypertensive rats administered with 3 mg/kg (po).
The subject of experiment [4] is Rattus norvegicus. Kind of experiment: Antihypertensive activity determined as percent fall in blood pressure after 4 hours in spontaneously hypertensive rats administered with 3 mg/kg, (po).

Activity data for 30 molecules are collected here from ChEMBL document CHEMBL1123205, “Synthesis and antihypertensive activity of a series of 4-amino-6,7-dimethoxyquinazoline derivatives” (1986).

Each structure is given as a SMILES string.

In the case of `COc1cc2nc(N(C)CCCNC(=O)C3Cc4ccccc4O3)nc(N)c2cc1OC.Cl` (configuration not stated), the figures for the Activity with Rattus norvegicus [1] and in the experiment with Rattus norvegicus [2] were -22% and -19%, respectively.

In the case of `COc1cc2nc(N(C)CCCNC(=O)c3cc4ccccc4o3)nc(N)c2cc1OC.Cl`, the Activity in the experiment with Rattus norvegicus [1] and in the experiment with Rattus norvegicus [2] was 0% in each case.

On to `COc1cc2nc(N(C)CCN(C)C(=O)c3ccccc3)nc(N)c2cc1OC`, for which the Activity in the experiment on Rattus norvegicus [1] and in the experiment on Rattus norvegicus [2] was 0% throughout.

Turning to `CCN(CCCN(C)C(=O)c1ccccc1)c1nc(N)c2cc(OC)c(OC)cc2n1.Cl`, the Activity in the experiment on Rattus norvegicus [1] is reported as -16%; with Rattus norvegicus [2] it was -12%.

With `COc1cc2nc(N(C)CCCN(C)C(=O)c3ccccc3)nc(N)c2cc1OC.Cl`, the Activity was -23% with Rattus norvegicus [1] and -15% in the experiment on Rattus norvegicus [2].

For `CCN(CCCN(CC)c1nc(N)c2cc(OC)c(OC)cc2n1)C(=O)c1ccco1.Cl`, the Activity with Rattus norvegicus [1] is recorded as -16%; in the experiment with Rattus norvegicus [2], -11%.

With `COc1cc2nc(NCCCNC(=O)c3ccccc3)nc(N)c2cc1OC.Cl`, the Activity with Rattus norvegicus [1] is on record as -9%; in the experiment with Rattus norvegicus [2], -7%.

For the molecule `COc1cc2nc(N(C)CCCNC(=O)c3ccco3)nc(N)c2cc1OC.Cl`, the Activity in the experiment with Rattus norvegicus [1] is listed as -20%; in the experiment with Rattus norvegicus [2] it was -17%.

Consider `COc1cc2nc(N(C)CCCNC(=O)c3ccccc3)nc(N)c2cc1OC.Cl`, for which the figures for the Activity with Rattus norvegicus [1] and with Rattus norvegicus [2] were -31% and -23%, respectively.

For the molecule `COc1cc2nc(N(C)CCCN(C)C(=O)c3ccco3)nc(N)c2cc1OC.Cl`, the Activity in the experiment on Rattus norvegicus [1] is reported as -24%; in the experiment with Rattus norvegicus [2] it was -20%.

On to `COc1cc2nc(N(C)CCCN(C)C(=O)c3cccnc3)nc(N)c2cc1OC.Cl`, for which the results for the Activity with Rattus norvegicus [1] and in the experiment with Rattus norvegicus [2] were -5% and -9%, respectively.

`COc1cc2nc(N(C)CCCNC(=O)/C=C/c3ccccc3)nc(N)c2cc1OC.Cl`: the Activity in the experiment on Rattus norvegicus [1] is reported as 0%; in the experiment on Rattus norvegicus [2], 3%.

On to `COc1cc2nc(N(C)CCCNC(=O)C3CCOC3)nc(N)c2cc1OC.Cl` (configuration not stated), for which the Activity in the experiment with Rattus norvegicus [1] is given as -24%; in the experiment on Rattus norvegicus [2], -10%.

For the molecule `COc1cc2nc(N(C)CCCN(C)C(=O)c3nnc(SC)o3)nc(N)c2cc1OC.Cl`, the Activity is -20% in the experiment on Rattus norvegicus [1] and -6% with Rattus norvegicus [2].

As to `COc1cc2nc(N(C)CCCN(C)C(=O)C3CCCO3)nc(N)c2cc1OC.Cl` (configuration not stated), the Activity was -14% with Rattus norvegicus [1] and -7% with Rattus norvegicus [2].

Consider `COc1cc2nc(N(C)CCCNC(=O)C3CC3)nc(N)c2cc1OC.Cl`, for which the results for the Activity in the experiment on Rattus norvegicus [1] and with Rattus norvegicus [2] were -19% and -12%, respectively.

As for `COc1cccc(C(=O)N(C)CCCN(C)c2nc(N)c3cc(OC)c(OC)cc3n2)c1.Cl`, the Activity in the experiment on Rattus norvegicus [1] is given as -12%; in the experiment with Rattus norvegicus [2], 0%.

With `COc1cc2nc(N(C)CCCN(CC(C)C)C(=O)c3ccccc3)nc(N)c2cc1OC.Cl`, the Activity in the experiment with Rattus norvegicus [1] was determined as 0%; with Rattus norvegicus [2], 6%.

In the case of `CCN(CCCN(CC)c1nc(N)c2cc(OC)c(OC)cc2n1)C(=O)c1ccccc1.Cl`, the Activity is -1% with Rattus norvegicus [1] and -5% with Rattus norvegicus [2].

In the case of `COc1cc2nc(NCCCN(C)C(=O)C3CCCO3)nc(N)c2cc1OC.Cl` (configuration not stated), the Activity in the experiment on Rattus norvegicus [1] is -8%; in the experiment with Rattus norvegicus [2], -6%.

As for `COc1cc2nc(N(C)CCCNC(=O)C3CCCC3)nc(N)c2cc1OC.Cl`, the results for the Activity in the experiment with Rattus norvegicus [1] and in the experiment with Rattus norvegicus [2] were -30% and -20%, respectively.

Consider `COc1cc2nc(N(C)CCCNC(=O)C3COc4ccccc4O3)nc(N)c2cc1OC.Cl` (configuration not stated), for which the Activity is on record as 2% in the experiment with Rattus norvegicus [1] and -6% with Rattus norvegicus [2].

For `COc1cc2nc(N(C)CCN(C)C(=O)c3ccco3)nc(N)c2cc1OC.Cl`, the Activity in the experiment with Rattus norvegicus [1] and in the experiment with Rattus norvegicus [2] was 0% throughout.

For the molecule `COc1cc2nc(N(C)CCCN(C)C(=O)c3cccc(C)c3)nc(N)c2cc1OC.Cl`, the values for the Activity in the experiment with Rattus norvegicus [1] and with Rattus norvegicus [2] were -10% and 0%, respectively.

As for `COc1cc(OC)cc(C(=O)N(C)CCCN(C)c2nc(N)c3cc(OC)c(OC)cc3n2)c1.Cl`, the Activity in the experiment with Rattus norvegicus [1] is recorded as -6%; in the experiment on Rattus norvegicus [2], -2%.

`COc1cc2nc(N(C)CCCCN(C)C(=O)c3ccccc3)nc(N)c2cc1OC.Cl`: the Activity was -21% in the experiment on Rattus norvegicus [1] and -12% with Rattus norvegicus [2].

For the molecule `COc1cc2nc(N(C)CCCN(C)C(=O)c3cc(OC)c(OC)c(OC)c3)nc(N)c2cc1OC.Cl`, the Activity in the experiment with Rattus norvegicus [1] is reported as -11%; in the experiment on Rattus norvegicus [2] it was -6%.

Regarding `COc1cc2nc(N(C)CCCNC(=O)C3CCOCC3)nc(N)c2cc1OC`, the Activity in the experiment with Rattus norvegicus [1] was -27%; in the experiment with Rattus norvegicus [2] it was -7%.

On to `COc1cc2nc(N(C)CCCNC(=O)C3CCCO3)nc(N)c2cc1OC.Cl` (configuration not stated) [ALFUZOSIN HYDROCHLORIDE], for which the figures for the Activity in the experiment on Rattus norvegicus [1] and in the experiment on Rattus norvegicus [2] were -34% and -24%, respectively.

In the case of `COc1cc2nc(N3CCN(C(=O)c4ccco4)CC3)nc(N)c2cc1OC.Cl` [PRAZOSIN HYDROCHLORIDE], the Activity with Rattus norvegicus [3] was -30%; with Rattus norvegicus [1] it was -37%; with Rattus norvegicus [2] it was -35%; in the experiment on Rattus norvegicus [4], -25%.
